PubChem BioAssay (NCI)
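Tested at 5 concentrations; 48 h exposure; 96-well plates; endpoints linearly interpolated, else capped at highest concentration. Here, GI50 denotes the concentration required for 50% inhibition of growth. The concentration for full growth arrest is given as TGI.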

Assays:
Test in all cases: NCI tumour cell line growth inhibition, 48 h
[1] = test system: 786-0 renal
[2] = test system: T-47D breast
[3] = test system: SNB-19 CNS
[4] = test system: NCI/ADR-RES ovarian
[5] = test system: M14 melanoma
[6] = test system: OVCAR-8 ovarian
[7] = test system: NCI-H23 lung
[8] = test system: SK-MEL-5 melanoma
[9] = test system: SN12C renal
[10] = test system: SK-MEL-2 melanoma

Q: Which TGI [1] does the source give for N/C(=N\OC(=O)NC(Cl)=C(Cl)Cl)c1cc(C(F)(F)F)cc(C(F)(F)F)c1 here?
A: 31.2 µM

Q: What about the TGI [2] of the same compound?
A: 25.7 µM

Q: What about the TGI [3] of the same compound?
A: 50.5 µM

Q: What about the TGI [4] of the same compound?
A: 47.2 µM

Q: What about the TGI [5] of the same compound?
A: 70.4 µM

Q: And the TGI [6]?
A: 40.6 µM

Q: What about the TGI [7] of the same compound?
A: > 100 µM

Q: And the TGI [8]?
A: 89.6 µM

Q: What about the TGI [9] of the same compound?
A: 60.8 µM

Q: What does the source list for COc1cc(C2[C@H]3C(=O)N(c4ccc(Cc5ccc(N6C(=O)[C@@H]7ON(c8ccccc8)C(c8cc(OC)c(OC)c(OC)c8)[C@@H]7C6=O)cc5)cc4)C(=O)[C@H]3ON2c2ccccc2)cc(OC)c1OC (some centres not stated)?
A: TGI [1]: > 100 µM; TGI [3]: > 100 µM; TGI [5]: 48.6 µM; TGI [10]: > 100 µM; TGI [6]: > 100 µM; TGI [7]: > 100 µM; TGI [8]: > 100 µM; TGI [9]: > 100 µM

Q: Which results are given for O=C1c2cnccc2Cc2cccc3c2N1c1ccccc1S3?
A: TGI [1]: 97.8 µM; TGI [3]: 74.6 µM; TGI [5]: 58.8 µM; TGI [10]: 32.5 µM; TGI [7]: 52.7 µM; TGI [8]: 39 µM; TGI [9]: > 100 µM

Q: Which GI50 [1] does the source give for CC(=O)OCCC/C(=C\c1ccc2ccccc2c1)[N+](=O)[O-] here?
A: 1.81 µM

Q: What about the TGI [1] of the same compound?
A: 3.35 µM

Q: What about the GI50 [3] of the same compound?
A: 1.77 µM

Q: And the TGI [3]?
A: 3.28 µM

Q: What about the GI50 [4] of the same compound?
A: 2.69 µM

Q: And the TGI [4]?
A: 8.67 µM

Q: What about the GI50 [5] of the same compound?
A: 1.58 µM

Q: And the TGI [5]?
A: 3.21 µM

Q: And the GI50 [10]?
A: 1.71 µM

Q: And the TGI [10]?
A: 3.62 µM

Q: What about the GI50 [6] of the same compound?
A: 2.06 µM

Q: And the TGI [6]?
A: 5.09 µM

Q: What about the GI50 [7] of the same compound?
A: 1.79 µM

Q: What about the TGI [7] of the same compound?
A: 4.65 µM

Q: And the GI50 [8]?
A: 1.72 µM

Q: What about the TGI [8] of the same compound?
A: 3.29 µM

Q: And the GI50 [9]?
A: 1.54 µM

Q: And the TGI [9]?
A: 3.32 µM

Q: Which results are given for C(=C1\CCC/C(=C/c2ccccc2)C1=NNc1ccccc1)/c1ccccc1?
A: TGI [1]: > 100 µM; TGI [3]: > 100 µM; TGI [5]: > 100 µM; TGI [10]: > 100 µM; TGI [6]: > 100 µM; TGI [7]: > 100 µM; TGI [8]: > 100 µM; TGI [9]: > 100 µM

Q: Which TGI [1] does the source give for COc1ccc(-c2cc(-c3ccccc3)c(C#N)c(=O)[nH]2)cc1 here?
A: > 100 µM

Q: And the TGI [3]?
A: > 100 µM

Q: And the TGI [5]?
A: > 100 µM

Q: What about the TGI [6] of the same compound?
A: > 100 µM

Q: And the TGI [7]?
A: > 100 µM

Q: And the TGI [8]?
A: > 100 µM

Q: What about the TGI [9] of the same compound?
A: > 100 µM

Q: For CC1(C)CCc2cc3c(cc2O1)OC(C)(C)C1c2c(ccc4c2CCC(C)(C)O4)OC31 (configuration not stated), which TGI [1] is on record?
A: > 100 µM

Q: And the TGI [5]?
A: > 100 µM

Q: And the TGI [10]?
A: > 100 µM

Q: And the TGI [6]?
A: > 100 µM

Q: What about the TGI [7] of the same compound?
A: > 100 µM

Q: And the TGI [8]?
A: > 100 µM

Q: What about the TGI [9] of the same compound?
A: > 100 µM

Q: For Cn1cc2ccccc2c1-c1nc(F)nc(Oc2ccc3c(c2)CC[C@@H]2C3CC[C@]3(C)C(O)CCC23)n1 (some centres not stated), which TGI [1] is on record?
A: 30.5 µM

Q: What about the TGI [3] of the same compound?
A: 34.7 µM

Q: What about the TGI [5] of the same compound?
A: 30.1 µM

Q: And the TGI [10]?
A: 36.1 µM

Q: And the TGI [6]?
A: 36 µM

Q: And the TGI [8]?
A: 30.2 µM

Q: What about the TGI [9] of the same compound?
A: 33.8 µM

Q: With CSc1nc2c(nc(N)n2C2OCC(O)C(O)C2O)c(=O)[nH]1 (configuration not stated) as the compound, how does the TGI [1] read?
A: > 100 µM

Q: What about the TGI [3] of the same compound?
A: > 100 µM

Q: What about the TGI [5] of the same compound?
A: > 100 µM

Q: And the TGI [6]?
A: > 100 µM

Q: What about the TGI [7] of the same compound?
A: > 100 µM

Q: And the TGI [8]?
A: > 100 µM

Q: And the TGI [9]?
A: > 100 µM

Q: For O=C1c2c(c3c4ccccc4n4c3c3c2c2ccccc2n3C/C=C\C4)C(=O)N1Cc1ccccc1, which TGI [1] is on record?
A: > 100 µM

Q: And the TGI [3]?
A: > 100 µM

Q: What about the TGI [5] of the same compound?
A: > 100 µM

Q: What about the TGI [6] of the same compound?
A: > 100 µM

Q: And the TGI [7]?
A: > 100 µM

Q: What about the TGI [8] of the same compound?
A: > 100 µM

Q: And the TGI [9]?
A: > 100 µM

Q: Which TGI [1] does the source give for Cn1c(=O)c(C(c2ccccc2)c2c(O)c3ccccc3n(C)c2=O)c(O)c2ccccc21 here?
A: > 100 µM

Q: And the TGI [3]?
A: > 100 µM

Q: And the TGI [5]?
A: > 100 µM

Q: And the TGI [10]?
A: > 100 µM

Q: And the TGI [6]?
A: > 100 µM

Q: What about the TGI [7] of the same compound?
A: > 100 µM

Q: And the TGI [8]?
A: > 100 µM

Q: What about the TGI [9] of the same compound?
A: > 100 µM

Q: Which results are given for O=S(=O)(NC(=S)Nc1ccccc1)c1ccc(N2N=C3c4ccccc4CC3C2c2ccc(Cl)cc2)cc1 (configuration not stated)?
A: GI50 [1]: 32.4 µM; TGI [1]: > 100 µM; GI50 [2]: 36.3 µM; TGI [2]: > 100 µM; GI50 [3]: 21.8 µM; TGI [3]: 46.4 µM; GI50 [5]: 36.4 µM; TGI [5]: > 100 µM; GI50 [10]: 23.4 µM; TGI [10]: 47.9 µM; GI50 [6]: 26.8 µM; TGI [6]: 71.1 µM; GI50 [8]: 20.4 µM; TGI [8]: 40.9 µM; GI50 [9]: 24.5 µM; TGI [9]: 55.6 µM

Q: CC(C)O/C=C1\C(=O)C2(SCCS2)[C@H]2CCCC[C@@H]12 was tested. Which TGI [1] did it give?
A: > 100 µM

Q: And the TGI [3]?
A: > 100 µM

Q: And the TGI [5]?
A: > 100 µM

Q: What about the TGI [10] of the same compound?
A: > 100 µM

Q: What about the TGI [6] of the same compound?
A: > 100 µM

Q: And the TGI [8]?
A: > 100 µM

Q: What about the TGI [9] of the same compound?
A: > 100 µM

Q: CC1=C(C(=O)Nc2ccccc2C)C(c2ccc(N(C)C)cc2)C(C(=O)Nc2ccccc2C)=C(C)N1 was tested. Which TGI [1] did it give?
A: > 100 µM

Q: What about the TGI [3] of the same compound?
A: > 100 µM

Q: And the TGI [10]?
A: > 100 µM

Q: And the TGI [6]?
A: > 100 µM

Q: And the TGI [7]?
A: > 100 µM

Q: What about the TGI [8] of the same compound?
A: > 100 µM

Q: And the TGI [9]?
A: > 100 µM

Q: How did the TGI [1] turn out when COc1ccc2oc(-c3ccncc3)cc(=O)c2c1 was run?
A: > 100 µM

Q: What about the TGI [3] of the same compound?
A: > 100 µM

Q: What about the TGI [5] of the same compound?
A: > 100 µM

Q: And the TGI [10]?
A: > 100 µM

Q: And the TGI [7]?
A: > 100 µM

Q: And the TGI [9]?
A: > 100 µM

Q: O=C(c1ccc(O)cc1)c1ccc(C(=O)c2ccc(O)cc2)cc1 was tested. Which GI50 [1] did it give?
A: > 100 µM

Q: What about the TGI [1] of the same compound?
A: > 100 µM

Q: And the GI50 [2]?
A: 4.69 µM

Q: What about the TGI [2] of the same compound?
A: > 100 µM

Q: What about the GI50 [3] of the same compound?
A: 71.1 µM

Q: And the TGI [3]?
A: > 100 µM

Q: What about the GI50 [5] of the same compound?
A: > 100 µM

Q: What about the TGI [5] of the same compound?
A: > 100 µM

Q: And the GI50 [10]?
A: > 100 µM

Q: What about the TGI [10] of the same compound?
A: > 100 µM

Q: And the GI50 [6]?
A: 20.8 µM

Q: What about the TGI [6] of the same compound?
A: > 100 µM

Q: And the GI50 [7]?
A: 75.3 µM

Q: And the TGI [7]?
A: > 100 µM

Q: What about the GI50 [8] of the same compound?
A: > 100 µM

Q: What about the TGI [8] of the same compound?
A: > 100 µM

Q: What about the GI50 [9] of the same compound?
A: > 100 µM

Q: And the TGI [9]?
A: > 100 µM
